Experimental data from ChEMBL document CHEMBL1201862, “PubChem BioAssay data set” (2004).
Activity calls are given as the source filed them.

Key:
[1] = target: T1, Long-chain-fatty-acid--AMP ligase FadD28 (Mycobacterium tuberculosis, UniProt P9WQ59); assay: Fluorescence polarization aasay to screen for inhibitors that compete for the binding of FadD28 to a bisubstrate Measured in Biochemical System Using Plate Reader - 2147-01_Inhibitor_Dose_CherryPick_Activity.; assay type: functional, Mycobacterium tuberculosis H37Rv
T1 sequence (P9WQ59 whole entry): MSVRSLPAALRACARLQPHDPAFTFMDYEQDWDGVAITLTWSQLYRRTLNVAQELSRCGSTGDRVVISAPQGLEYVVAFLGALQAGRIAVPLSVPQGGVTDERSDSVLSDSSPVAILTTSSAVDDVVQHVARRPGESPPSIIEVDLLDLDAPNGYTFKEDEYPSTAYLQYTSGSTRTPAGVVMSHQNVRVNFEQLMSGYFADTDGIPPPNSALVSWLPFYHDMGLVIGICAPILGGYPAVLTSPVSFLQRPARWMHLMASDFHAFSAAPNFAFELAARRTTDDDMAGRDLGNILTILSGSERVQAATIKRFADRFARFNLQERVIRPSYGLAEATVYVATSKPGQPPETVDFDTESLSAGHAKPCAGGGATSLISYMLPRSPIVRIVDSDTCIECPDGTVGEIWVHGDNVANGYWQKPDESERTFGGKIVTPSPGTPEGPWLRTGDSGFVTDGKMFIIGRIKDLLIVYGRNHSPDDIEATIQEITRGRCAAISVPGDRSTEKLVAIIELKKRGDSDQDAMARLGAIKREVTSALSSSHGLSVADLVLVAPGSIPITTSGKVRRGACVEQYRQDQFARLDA

fMet-Leu-Phe receptor = target: T2, fMet-Leu-Phe receptor (Homo sapiens, UniProt P21462); assay: FPR ligands, dose response (AID 519); assay type: functional
T2 sequence (P21462 whole entry): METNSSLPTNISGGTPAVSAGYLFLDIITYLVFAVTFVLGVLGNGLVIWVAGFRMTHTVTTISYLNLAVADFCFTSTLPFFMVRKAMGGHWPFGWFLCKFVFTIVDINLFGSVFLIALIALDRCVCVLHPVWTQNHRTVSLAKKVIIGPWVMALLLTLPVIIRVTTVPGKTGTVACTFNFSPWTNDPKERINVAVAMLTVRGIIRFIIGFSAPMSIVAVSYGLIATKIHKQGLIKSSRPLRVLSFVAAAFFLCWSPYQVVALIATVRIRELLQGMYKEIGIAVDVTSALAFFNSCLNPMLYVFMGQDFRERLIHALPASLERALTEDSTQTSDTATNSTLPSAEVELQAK

[2] = target: T3, Oxysterols receptor LXR-beta (Homo sapiens, UniProt P55055); assay type: functional, cell-based;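 also: agonist activity at LXR measured by a cell-based luminescence readout across a dose range, run as a counterscreen for daf-12 agonists; potency for activation of Gal4-LXR reporter so compounds are agonists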
T3 sequence (P55055 whole entry): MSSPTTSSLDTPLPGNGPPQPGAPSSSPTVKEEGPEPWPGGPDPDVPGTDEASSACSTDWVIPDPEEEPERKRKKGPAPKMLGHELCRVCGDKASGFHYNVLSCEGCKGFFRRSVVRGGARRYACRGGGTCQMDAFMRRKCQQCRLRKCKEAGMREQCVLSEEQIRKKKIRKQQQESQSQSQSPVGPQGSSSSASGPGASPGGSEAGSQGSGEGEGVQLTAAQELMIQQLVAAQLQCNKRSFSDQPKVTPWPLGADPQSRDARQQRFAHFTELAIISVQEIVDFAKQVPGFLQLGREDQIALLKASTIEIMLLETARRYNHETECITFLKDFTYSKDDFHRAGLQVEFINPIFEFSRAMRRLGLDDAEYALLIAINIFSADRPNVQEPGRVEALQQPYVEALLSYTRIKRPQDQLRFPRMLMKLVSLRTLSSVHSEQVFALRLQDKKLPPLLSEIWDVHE

[3] = target: T3, Oxysterols receptor LXR-beta; assay: LXR agonists, Gal4 luciferase reporter, dose response, counter-screen for ssDAF-12 agonist project, cell-based, luminescence, HEK293, S. stercoralis campaign (AID 720737); assay type: functional; settings: read-out: IC50 (the source's name)
[4] = Luminescence-based cell-based high throughput dose response assay to identify activators of the DAF-12 from the parasite S. stercoralis (ssDAF-12).; assay type: functional
[5] = target: T4, Fructose-bisphosphate aldolase (Mycobacterium tuberculosis, UniProt P9WQA3); assay: Fluorescence-based biochemical high throughput dose response assay for inhibitors of the fructose-bisphosphate aldolase (FBA) of M. tuberculosis.; assay type: functional
T4 sequence (P9WQA3 whole entry): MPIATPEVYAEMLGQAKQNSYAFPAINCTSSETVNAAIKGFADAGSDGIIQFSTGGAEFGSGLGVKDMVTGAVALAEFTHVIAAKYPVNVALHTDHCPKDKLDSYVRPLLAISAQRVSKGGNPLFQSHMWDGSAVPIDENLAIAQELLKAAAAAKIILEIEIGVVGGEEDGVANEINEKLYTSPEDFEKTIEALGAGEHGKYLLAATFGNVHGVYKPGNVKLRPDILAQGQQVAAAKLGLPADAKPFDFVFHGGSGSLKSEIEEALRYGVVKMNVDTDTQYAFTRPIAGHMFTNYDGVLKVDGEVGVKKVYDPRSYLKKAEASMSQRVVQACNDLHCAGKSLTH

[6] = human group III sPLA2 inhibitors, dose response, biochemical, QFRET, IC50 (AID 743457);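 also: green fluorescence rise as the enzyme cleaves BODIPY PC-A2 in liposomes; potency for inhibition of the enzyme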

CCN(CC)c1ccc(/C=N/NC(=O)c2ccc3c(c2)OCCO3)cc1
AC50 [1]: 74.2 µM (active)

COC(=O)c1ccc(C2C(C(=O)c3ccc(OC)cc3)=C(O)C(=O)N2Cc2ccco2)cc1 (centres undefined)
Ki (fMet-Leu-Phe receptor): 43 µM (inactive)

Cc1cccc(NC(=O)CN2C(=O)N/C(=C\c3ccc(-c4cccc(C(=O)O)c4)o3)C2=O)c1
AC50 [1]: 3.6 µM (active)

CCCOc1ccc2c(=O)c(N3C(=O)c4ccccc4C3=O)c(C)oc2c1
Ki (fMet-Leu-Phe receptor): > 66.7 µM (inactive)

O=C1/C(=C\c2cccs2)Sc2ccc3ccccc3c21
EC50 [2]: > 67.5 µM (inactive)
EC50 [3]: > 67.6 µM (inactive)
IC50 [4]: > 67.6 µM (inactive)

CCOC(=O)N1CCC(NC(=O)c2cc3cc4cc(OC)ccc4nc3o2)CC1
IC50 [5]: > 370 nM (active)

Cc1ccc(-c2nnc(SCC(=O)NN=C(S)Nc3ccccc3)n2C2CCCCC2)cc1
IC50 [6]: > 122 µM (inactive)
